From patent US8318712B2, “Concentrated liquid thyroid hormone composition” (Intervet International B.V., priority 2006, dated 2012)

Experiments:
[1] = as reported by Sigma-Aldrich; cited from earlier work
[2] = Solubility of levothyroxine sodium, effect of pH; assay type: physicochemical
Description: To have an acceptable biological pH and to improve the solubility of levothyroxine, the pH preferably is at least about 8, or at least about 9.

[3] = Solubility in water, effect of levothyroxine sodium particle size; assay type: physicochemical; conditions: observed after 24 hours
Method: The solubilities of batches of levothyroxine sodium micronized (D99<13 μm) and not micronized (D99<125 μm) were investigated. Preparations with several amounts of active ingredient in a fixed volume of water were observed after 24 hours. In both cases, less than 100 μg of levothyroxine sodium was soluble per ml of water.

[4] = Stability of levothyroxine sodium in aqueous HPBCD solution with or without stabilizers; assay type: physicochemical; conditions: experiments of Tables 2-4
Description: The stability of levothyroxine sodium in an aqueous solution of HPBCD with or without stabilization was investigated.

[5] = Stability of levothyroxine sodium in aqueous HPBCD solutions with phosphate and carbonate buffers, sealed container; assay type: physicochemical; conditions: experiments of Table 9
Description: Applicants investigated the stability of levothyroxine sodium in aqueous HPBCD solutions with phosphate and carbonate buffers in a sealed container.

[6] = Solubility in aqueous HPBCD solution, effect of complexing agent and copolymers; assay type: physicochemical
Method: In an aqueous solution of 30% (w/w) HPBCD (Kleptose HPB, Roquette, France), 1000 μg/ml of levothyroxine sodium was dissolved. Applicants have observed that similar levothyroxine sodium solubilities may be achieved at lesser concentrations of HPBCD by adding a copolymer(s), such as, for example, sodium carboxymethyl cellulose (“CMC”), hydroxypropylmethylcellulose 4000 (“HPMC”), and/or povidone 12PF.
0.5% w/w of CCM and 15% (w/w) of HPBCD,
0.5% w/w of HPMC and 20% (w/w) of HPBCD, or
2% w/w of Povidone 12PF and 20% (w/w) of HPBCD.

SMILES: CC(C)(N)CO [AMP, 2-amino-2-methyl-1-propanol]
- effective pH range [1]: 8.7-10.4

SMILES: O=S(=O)(O)CCCCNC1CCCCC1 [CABS, 4-[cyclohexylamino]-1-butanesulfonic acid]
- effective pH range [1]: 10.0-11.4

SMILES: O=S(=O)(O)CCCNC1CCCCC1 [CAPS, N-cyclohexyl-3-aminopropanesulfonic acid]
- effective pH range [1]: 9.7-11.1

SMILES: O=S(=O)(O)CC(O)CNC1CCCCC1 (stereo not shown) [CAPSO, 3-[cyclohexylamino]-2-hydroxy-1-propanesulphonic acid]
- effective pH range [1]: 8.9-10.3

SMILES: NCC(=O)O [Glycine]
- effective pH range [1]: 8.8-10.6
- pKa2 [1]: 9.78

SMILES: CN [Methylamine]
- effective pH range [1]: 9.5-11.5

SMILES: NCCO [ethanolamine]
- effective pH range [1]: 6.0-12.0

SMILES: N[C@@H](Cc1cc(I)c(Oc2cc(I)c(O)c(I)c2)c(I)c1)C(=O)[O-].[Na+] [levothyroxine sodium]
- solubility ([2]; pH 7.3): 28 µg/mL
- solubility relative to pH 7.3 ([2]; pH 9.4): 7 times greater
- solubility relative to pH 7.3 ([2]; pH 10.45): 11 times greater
- levothyroxine sodium soluble per ml of water ([3]; micronized (D99<13 μm)): less than 100 μg per ml
- levothyroxine sodium soluble per ml of water ([3]; not micronized (D99<125 μm)): less than 100 μg per ml
- compatibility with HPBCD in aqueous solution [4]: did not exhibit incompatibility
- compatibility with HPBCD in aqueous solution [5]: did not exhibit incompatibility
- levothyroxine sodium dissolved ([6]; aqueous solution of 30% (w/w) HPBCD): 1000 µg/mL
- levothyroxine sodium dissolved ([6]; aqueous solution, 0.5% w/w of CCM and 15% (w/w) of HPBCD): 1000 µg/mL
- levothyroxine sodium dissolved ([6]; aqueous solution, 0.5% w/w of HPMC and 20% (w/w) of HPBCD): 1000 µg/mL
- levothyroxine sodium dissolved ([6]; aqueous solution, 2% w/w of Povidone 12PF and 20% (w/w) of HPBCD): 1000 µg/mL
